One assay deals with T1, human G9a enzyme (Homo sapiens, UniProt Q96KQ7).
T1 sequence (Q96KQ7 1-1210): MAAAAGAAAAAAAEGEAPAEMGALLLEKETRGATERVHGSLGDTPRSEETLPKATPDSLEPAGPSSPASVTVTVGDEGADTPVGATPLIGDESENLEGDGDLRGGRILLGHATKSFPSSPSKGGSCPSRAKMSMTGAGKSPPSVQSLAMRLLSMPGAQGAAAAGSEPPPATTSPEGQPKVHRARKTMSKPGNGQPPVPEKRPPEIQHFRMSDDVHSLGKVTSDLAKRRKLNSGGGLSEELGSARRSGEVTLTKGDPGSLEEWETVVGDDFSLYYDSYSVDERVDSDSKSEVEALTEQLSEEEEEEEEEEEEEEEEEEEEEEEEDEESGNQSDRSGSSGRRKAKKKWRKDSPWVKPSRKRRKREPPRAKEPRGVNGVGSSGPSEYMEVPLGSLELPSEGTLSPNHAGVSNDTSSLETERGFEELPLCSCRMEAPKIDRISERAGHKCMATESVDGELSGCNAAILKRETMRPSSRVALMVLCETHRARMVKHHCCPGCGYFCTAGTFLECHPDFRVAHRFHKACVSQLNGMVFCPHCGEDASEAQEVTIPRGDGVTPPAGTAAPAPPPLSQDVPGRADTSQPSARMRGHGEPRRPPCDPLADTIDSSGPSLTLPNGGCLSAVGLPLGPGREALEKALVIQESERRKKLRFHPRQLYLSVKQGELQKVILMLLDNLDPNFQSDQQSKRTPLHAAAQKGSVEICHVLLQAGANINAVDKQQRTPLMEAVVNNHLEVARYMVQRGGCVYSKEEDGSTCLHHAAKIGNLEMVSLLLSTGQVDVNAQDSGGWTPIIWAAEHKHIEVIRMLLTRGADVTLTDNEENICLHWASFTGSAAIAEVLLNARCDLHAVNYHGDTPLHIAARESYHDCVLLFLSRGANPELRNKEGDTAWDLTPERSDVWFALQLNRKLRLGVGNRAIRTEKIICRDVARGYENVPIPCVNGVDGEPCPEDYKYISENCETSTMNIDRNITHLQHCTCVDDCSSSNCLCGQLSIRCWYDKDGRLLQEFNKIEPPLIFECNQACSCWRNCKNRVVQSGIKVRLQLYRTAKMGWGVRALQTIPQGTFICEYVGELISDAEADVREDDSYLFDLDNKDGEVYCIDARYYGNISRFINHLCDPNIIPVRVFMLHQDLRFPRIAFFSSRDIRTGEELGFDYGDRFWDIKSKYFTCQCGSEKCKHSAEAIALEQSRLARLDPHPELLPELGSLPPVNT
Briefly: G9a enzyme activity assay (TR-FRET). The class given is biochemical. On the procedure: The biochemical assay to measure G9a enzyme activity relies on time-resolved fluorescence energy transfer (TR-FRET) between europium cryptate (donor) and XL665 (acceptor). […] The human G9a enzyme expressed in a baculovirus infected Sf9 cell expression system was obtained from BPS Biosciences (Cat. #51001). […] Final percentage of DMSO was 0.5%. • 2 μl of 1 nM G9a enzyme diluted in assay buffer. […] Final concentration 150 nM. • Then, add 5 μl of streptavidin XL665 beads. Final concentration of 16 μM. • Read the plate after 1 hour of incubation at room temperature.
(§1) For each well, fluorescence was measured at 620 nm and 665 nm. A ratio (665 nm/620 nm) was then calculated in order to minimize medium interferences. Positive control was obtained in the presence of the vehicle of the compounds. Negative control was obtained in the absence of G9a enzyme activity. Calculated IC50 values were determined using GraphPrism using 4-parameters inhibition curve.

The target in a further assay is DNMT1 (Homo sapiens, UniProt P26358). Kind of assay: DNMT1 enzyme activity assay (TR-FRET, EPIgeneous methyltransferase assay). It is filed as biochemical. On the procedure:
The biochemical assay to measure DNMT1 enzyme activity relies on time-resolved fluorescence energy transfer (TR-FRET) between lumi4-Tb (donor) and d2 (acceptor) using the EPIgeneous methyltransferase assay (CisBio Cat#62SAHPEB). […] TR-FRET signal is inversely proportional to the concentration of SAH, product of DNMT1 enzyme activity, in the sample.
The human DNMT1 was obtained from Reaction Biology Corp. (Cat# DMT-21-124). […] Final percentage of DMSO was 0.5%. • 2 μl of 1 nM DNMT1 enzyme diluted in assay buffer.
as §1

Structures are written as SMILES. Some results are limits rather than exact numbers.

Chain of DNMT1 (P26358 whole entry): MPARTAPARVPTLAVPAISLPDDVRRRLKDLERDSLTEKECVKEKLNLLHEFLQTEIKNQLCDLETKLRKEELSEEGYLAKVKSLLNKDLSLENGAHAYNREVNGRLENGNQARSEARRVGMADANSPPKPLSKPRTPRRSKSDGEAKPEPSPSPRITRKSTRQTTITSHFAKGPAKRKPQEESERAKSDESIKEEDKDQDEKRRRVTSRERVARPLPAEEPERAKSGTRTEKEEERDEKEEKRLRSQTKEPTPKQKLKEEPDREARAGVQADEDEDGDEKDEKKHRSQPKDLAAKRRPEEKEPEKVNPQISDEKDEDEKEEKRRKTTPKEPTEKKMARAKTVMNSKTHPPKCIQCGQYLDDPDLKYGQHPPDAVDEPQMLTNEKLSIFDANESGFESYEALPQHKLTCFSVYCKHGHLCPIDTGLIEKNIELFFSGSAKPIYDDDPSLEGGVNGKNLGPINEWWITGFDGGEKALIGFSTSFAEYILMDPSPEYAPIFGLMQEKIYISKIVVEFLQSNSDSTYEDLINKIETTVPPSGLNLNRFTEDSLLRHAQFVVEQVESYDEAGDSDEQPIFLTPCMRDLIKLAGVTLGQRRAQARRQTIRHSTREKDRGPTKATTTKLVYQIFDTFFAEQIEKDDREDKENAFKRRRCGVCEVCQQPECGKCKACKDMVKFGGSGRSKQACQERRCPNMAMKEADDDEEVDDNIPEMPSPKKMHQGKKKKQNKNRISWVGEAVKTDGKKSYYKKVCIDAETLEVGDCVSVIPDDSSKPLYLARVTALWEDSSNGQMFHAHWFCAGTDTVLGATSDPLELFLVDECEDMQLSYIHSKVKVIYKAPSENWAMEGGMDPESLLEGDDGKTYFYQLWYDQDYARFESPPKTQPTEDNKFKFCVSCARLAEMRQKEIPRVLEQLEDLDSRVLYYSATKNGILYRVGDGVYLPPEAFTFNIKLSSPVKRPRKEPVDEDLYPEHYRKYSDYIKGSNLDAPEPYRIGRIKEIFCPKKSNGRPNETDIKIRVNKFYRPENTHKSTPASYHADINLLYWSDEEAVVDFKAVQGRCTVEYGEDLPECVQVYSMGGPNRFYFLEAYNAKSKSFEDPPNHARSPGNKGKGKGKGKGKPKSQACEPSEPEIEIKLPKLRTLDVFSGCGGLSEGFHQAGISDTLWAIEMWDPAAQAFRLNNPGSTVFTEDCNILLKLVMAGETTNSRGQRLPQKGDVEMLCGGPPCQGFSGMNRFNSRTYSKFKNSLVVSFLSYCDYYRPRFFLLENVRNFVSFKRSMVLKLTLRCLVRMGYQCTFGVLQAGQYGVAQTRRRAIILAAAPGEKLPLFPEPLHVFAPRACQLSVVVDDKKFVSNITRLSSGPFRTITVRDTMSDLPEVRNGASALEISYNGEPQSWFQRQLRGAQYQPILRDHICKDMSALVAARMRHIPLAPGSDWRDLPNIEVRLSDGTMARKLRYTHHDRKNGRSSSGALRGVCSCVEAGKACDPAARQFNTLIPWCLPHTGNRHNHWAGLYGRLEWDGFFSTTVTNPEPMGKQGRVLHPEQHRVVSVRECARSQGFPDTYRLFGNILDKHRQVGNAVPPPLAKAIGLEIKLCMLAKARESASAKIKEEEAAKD

One may read the IC50 as the concentration needed to halve the response being measured. Read a high IC50 as weaker potency. Regarding `COc1cc2c(NC3CCN(C)CC3)cc(-c3ccn(C)n3)nc2cc1OCCCN1CCCC1` [Compound 3-33], the IC50 against human G9a enzyme was under 100 nM; at DNMT1, 1000 to 10000 nM.
The corresponding values for `COc1cc2c(NCC3CCN(C)CC3)cc(-c3ccc(C)[nH]3)nc2cc1OCC1CCNCC1` [Compound 11-06] are 100 to 500 nM and 100 to 500 nM.
Taken in the same sequence, the figures for `COc1cc2c(NC3CCN(C)CC3)cc(N3CCN(C)CC3)nc2cc1OCCCN1CCCC1` [Compound 1-02] were under 100 nM and 500 to 1000 nM.
On to `CCc1ccc(-c2cc(NC3CCN(C)CC3)c3cc(OC)c(OCC4CCNCC4)cc3n2)o1` [Compound 11-03], for which the IC50 against human G9a enzyme lay in the range of 1000 to 10000 nM; on DNMT1 it was 500 to 1000 nM.
The corresponding values for `COc1cc2c(NC3CCN(C)CC3)cc(-c3ccc(C)o3)nc2cc1OC1CCN(C(=O)OC(C)(C)C)CC1` [Compound 19-03] are 1000 to 10000 nM and 1000 to 10000 nM.
Taken in the same sequence, the figures for `COc1cc2c(NC3CCN(C)CC3)cc(-c3ccc(CN(C)C)o3)nc2cc1OCCCN1CCCC1` [Compound 8-01, 2-[5-[(dimethylamino)methyl]-2-furyl]-6-methoxy-N-(1-methyl-4-piperidyl)-7-(3-pyrrolidin-1-ylpropoxy)quinolin-4-amine; 2,2,2-trifluoroacetic acid] were 100 to 500 nM and 1000 to 10000 nM.
The corresponding values for `COc1cc2c(NC3CCN(C)CC3)cc(-c3cc[nH]c(=O)c3)nc2cc1OCCCN1CCCC1` [Compound 3-37] are 100 to 500 nM and 1000 to 10000 nM.
As to `COc1cc2c(NC3CCC34CCNCC4)cc(-c3ccc(C)o3)nc2cc1OCCCN1CCCC1` (stereo not shown) [Compound 4-01, N-(7-azaspiro[3.5]nonan-3-yl)-6-methoxy-2-(5-methyl-2-furyl)-7-(3-pyrrolidin-1-ylpropoxy)quinolin-4-amine; 2,2,2-trifluoroacetic acid], the IC50 against human G9a enzyme was under 100 nM; on DNMT1, 100 to 500 nM.
The corresponding values for `CCNCc1ccc(-c2cc(NC3CCN(C)CC3)c3cc(OC)c(OCCCN4CCCC4)cc3n2)o1` [Compound 8-02] are under 100 nM and 500 to 1000 nM.
The corresponding values for `COc1cc2c(NC3CCN(C)CC3)cc(-c3ccc(CO)o3)nc2cc1OCCCN1CCCC1` [Compound 9-01, [5-[6-methoxy-4-[(1-methyl-4-piperidyl)amino]-7-(3-pyrrolidin-1-ylpropoxy)-2-quinolyl]-2-furyl]methanol; 2,2,2-trifluoroacetic acid] are under 100 nM and 500 to 1000 nM.
The corresponding values for `COc1cc2c(NC3CCNC(=O)C3)cc(-c3ccc(C)o3)nc2cc1OCCCN1CCCC1` (stereo not shown) [Compound 3-18] are 100 to 500 nM and 1000 to 10000 nM.
On to `COc1cc2c(NC3CCNCC3)cc(C3CCCCC3)nc2cc1OCCCN1CCCC1` [Compound 7-04, 2-cyclohexyl-6-methoxy-N-(4-piperidyl)-7-(3-pyrrolidin-1-ylpropoxy)quinolin-4-amine; 2,2,2-trifluoroacetic acid], for which the IC50 at human G9a enzyme was under 100 nM; against DNMT1, 500 to 1000 nM.
In the case of `COc1cc2c(NC3CCN(C)CC3)cc(-c3ccccc3C)nc2cc1OCCCN1CCCC1` [Compound 3-34], the IC50 was under 100 nM on human G9a enzyme and 1000 to 10000 nM against DNMT1.
Taken in the same sequence, the figures for `COc1cc2c(NC3CCN(C)CC3)cc(-c3cccnc3)nc2cc1OCCCN1CCCC1` [Compound 3-30] were under 100 nM and 1000 to 10000 nM.
Taken in the same sequence, the figures for `CCc1ccc(-c2cc(NC3CCC34CCN(C3CC3)CC4)c3cc(OC)c(OCCCN4CCCC4)cc3n2)o1` (stereo not shown) [Compound 19-02, N-(7-cyclopropyl-7-azaspiro[3.5]nonan-3-yl)-2-(5-ethyl-2-furyl)-6-methoxy-7-(3-pyrrolidin-1-ylpropoxy)quinolin-4-amine; 2,2,2-trifluoroacetic acid] were 500 to 1000 nM and 100 to 500 nM.
The corresponding values for `COc1cc2c(NCC3CCN(C)C(=O)C3)cc(-c3ccc(C)[nH]3)nc2cc1OCC1CCNCC1` (stereo not shown) [Compound 11-07] are 500 to 1000 nM and 500 to 1000 nM.
On to `COc1cc2c(NC3CCC(C)(O)CC3)cc(-c3ccc(C)o3)nc2cc1OCCCN1CCCC1` (stereo not shown) [Compound 3-45], for which the IC50 lay within 100 to 500 nM against human G9a enzyme and 1000 to 10000 nM on DNMT1.
The corresponding values for `COc1cc2c(NC3CCN(C)C(=O)C3)cc(-c3ccc(C)[nH]3)nc2cc1OCC1CCN(C)CC1` (stereo not shown) [Compound 12-04] are 1000 to 10000 nM and 500 to 1000 nM.
Taken in the same sequence, the figures for `Cc1ccc(-c2cc(NC3CCN(C)CC3)c3cc(OCC(F)(F)F)c(OCCCN4CCCC4)cc3n2)o1` [Compound 13-01, 2-(5-methyl-2-furyl)-N-(1-methyl-4-piperidyl)-7-(3-pyrrolidin-1-ylpropoxy)-6-(2,2,2-trifluoroethoxy)quinolin-4-amine; 2,2,2-trifluoroacetic acid] were 500 to 1000 nM and 500 to 1000 nM.
Taken in the same sequence, the figures for `COc1cc(NC2CCN(C)CC2)c2cc(OC)c(OCCCN3CCCC3)cc2n1` [Compound 2-01] were 100 to 500 nM and 1000 to 10000 nM.
As to `COc1cc2c(NC3CCN(C)CC3)cc(C3CCCCC3)nc2cc1OCCCN1CCCC1` [Compound 7-01, 2-cyclohexyl-6-methoxy-N-(1-methyl-4-piperidyl)-7-(3-pyrrolidin-1-ylpropoxy)quinolin-4-amine; 2,2,2-trifluoroacetic acid], the IC50 was under 100 nM on human G9a enzyme and 100 to 500 nM at DNMT1.
The corresponding values for `COc1cc2c(NCCC(F)(F)F)cc(-c3ccc(C)o3)nc2cc1OCCCN1CCCC1` [Compound 3-11] are 100 to 500 nM and 1000 to 10000 nM.
The corresponding values for `COc1cc2c(NC3CCOCC3)cc(-c3ccc(C)o3)nc2cc1OCCCN1CCCC1` [Compound 3-16] are 100 to 500 nM and 1000 to 10000 nM.
Regarding `COc1cc2c(NC3CCN(C)CC3)cc(-c3ccc(C#N)o3)nc2cc1OCCCN1CCCC1` [Compound 10-01, 5-[6-methoxy-4-[(1-methyl-4-piperidyl)-amino]-7-(3-pyrrolidin-1-ylpropoxy)-2-quinolyl]furan-2-carbonitrile; 2,2,2-trifluoroacetic acid], the half-maximal inhibitory concentration (IC50) against human G9a enzyme is 100 to 500 nM; against DNMT1, 1000 to 10000 nM.
For the compound `COc1cc2c(NC3CC3)cc(-c3ccc(C)[nH]3)nc2cc1OCC1CCNCC1` [Compound 11-08], the concentration for half-maximal inhibition (IC50) at human G9a enzyme and against DNMT1 was 1000 to 10000 nM throughout.
Turning to `COc1cc2c(NCC3CCCC3)cc(-c3ccc(C)o3)nc2cc1OCCCN1CCCC1` [Compound 3-14], the half-maximal inhibitory concentration (IC50) at human G9a enzyme and at DNMT1 was 1000 to 10000 nM throughout.
Turning to `CCc1ccc(-c2cc(NC3CC4(CCN(C5CC5)CC4)C3)c3cc(OC)c(OCCCN4CCCC4)cc3n2)o1` [Compound 19-01, N-(7-cyclopropyl-7-azaspiro[3.5]nonan-2-yl)-2-(5-ethyl-2-furyl)-6-methoxy-7-(3-pyrrolidin-1-ylpropoxy)quinolin-4-amine; 2,2,2-trifluoroacetic acid], the IC50 fell in the range of 1000 to 10000 nM against human G9a enzyme and 500 to 1000 nM at DNMT1.
The corresponding values for `COCCNc1cc(-c2ccc(C)o2)nc2cc(OCCCN3CCCC3)c(OC)cc12` [Compound 3-12] are 100 to 500 nM and 1000 to 10000 nM.
The corresponding values for `COc1cc2c(NC3CCN(C)CC3)cc(C)nc2cc1OCCCN1CCCC1` [Compound 3-23] are under 100 nM and 500 to 1000 nM.

For the origin of these results see patent publication US9840500B2, “Compounds as dual inhibitors of histone methyltransferases and DNA methyltransferases” (FUNDACIÓN PARA LA INVESTIGACIÓN MÉDICA APLICADA, priority 2014, dated 2017).
